Where “and” joins values, the source holds several entries; their conditions need not be identical. Equal entries are not always repeated. Entries after “also recorded” stand apart in the source; their conditions may differ.
Key:
[1] = system: β-amyloid oligomers, profibrils, fibrils and plaque aggregates; assay: SDS-PAGE analysis of dissociation of β-amyloid aggregates; type: biochemical
β-amyloid [2] = target: T1, β-amyloid (Homo sapiens, UniProt P05067); assay: β-amyloid monomer concentration in plasma and whole blood treated with EPPS (APP/PS1/Tau transgenic mouse); set-up: tissue Jackson Laboratory (mice); host or cells: plasma / whole blood of 5-month-old female APP/PS1/Tau transgenic mice, treated ex vivo with EPPS; conditions: 5-month-old APP/PS1/Tau mice
Excerpt: 5-month-old female APP/PS1/Tau transgenic mice were used as test animals.
The transgenic APP/PS1/Tau mouse model was B6;129-Psen1tm1MpmTg(APPSwe,tauP301L)1Lfa/Mmjax purchased from the Jackson Laboratory (USA) and maintained and used for experiments under the guideline of the Animal Care and Use Committee.
Blood was collected in K2 EDTA-treated vacuum tube containing Roche Complete Mini (protease inhibitor) solution and centrifuged. Plasma separated from the cell fraction was collected in an Eppendorf tube and prepared into 0.1-mL samples, which were used immediately or stored at −80° C. for later use. Whole blood was collected in an Eppendorf tube by treating with EPPS and separating plasma from the cell fraction and prepared into 0.1-mL samples, which were used immediately for β-amyloid concentration measurement or stored at −80° C. for later use.
The plasma was treated with water (control group) or EPPS (EPPS group).
As for the EPPS group, 15 μL of the plasma was treated with 5 μL of 400 mM EPPS, so that the final EPPS concentration was 100 mM. As for the control group, 15 μL of plasma was treated with 5 μL of PBS, so that the concentration was the same as that of the EPPS group. […]
The whole blood was analyzed after treating with EPPS. […]
The β-amyloid concentration in each plasma was measured using detection units 1 and 2 and MB/MP was calculated by a calculation unit using [Equation 2].

[3] = system: β-amyloid oligomers, profibrils, fibrils and plaques; assay: Electron microscopic observation of β-amyloid aggregates; type: biochemical; conditions: electron microscopy
β-amyloid [4] = target: T1, β-amyloid; assay: β-amyloid concentration in plasma and whole blood treated with EPPS (APP/PS1 transgenic mouse); set-up: tissue Jackson Laboratory (mice); host or cells: plasma / whole blood of female APP/PS1 transgenic mice; conditions: 9-month-old APP/PS1 mice
Procedure: 9-month-old female APP/PS1 transgenic mice were used as test animals.
The transgenic APP/PS1 mouse model was B6C3-Tg(APPswe,PSEN1dE9)85Dbo/Mmjax purchased from the Jackson Laboratory (USA) and bred and used for experiments under the guideline of the Animal Care and Use Committee.
Sample treatment and β-amyloid concentration measurement were conducted in the same manner as in Example 1.

β-amyloid [5] = target: T1, β-amyloid; assay: Plasma β-amyloid concentration before and after administration of EPPS, B−A by Equation 1; type: in vivo, APP/PS1 transgenic mice; set-up: tissue Jackson Laboratory (mice); host or cells: plasma / whole blood of female APP/PS1 transgenic mice; B-A (1 day) / B-A (5 days) / B-A (19 days) / B-A (33 days): unit not given here; conditions: for B-A (1 day): average of three measurements
Procedure: Female APP/PS1 transgenic mice were used as test animals. A total of 32 mice were used (eleven 5-6 month-olds and twenty-one 7.2-8.6 and 13 month-olds). 5-6-month-old mice were used since β-amyloid plaque accumulation in the brain begins from 5 months.
The transgenic APP/PS1 mouse model was B6C3-Tg(APPswe, PSEN1dE9)85Dbo/Mmjax purchased from the Jackson Laboratory (USA) and maintained and used for experiments under the guideline of the Animal Care and Use Committee.
EPPS was administered to each of the 32 mice at a dose of 1,000 mg/kg/day.
Blood was drawn from the of the retro-orbital venous plexus of the mouse using a microtube (Marienfeld, Germany) treated with 80 IU/mL heparin before and after the administration of EPPS. The blood drawing after the administration of EPPS was performed 1 day, 5 days, 19 days and 33 days after the administration of EPPS.
The blood was collected in an Eppendorf tube and centrifuged at 13,500 rpm and 4° C. for 5 minutes. Plasma separated from the cell fraction was collected in an Eppendorf tube for immediate use or for storage at −80° C. for later use.
β-Amyloid concentration in the plasma collected before and after the administration of EPPS was measured by detection units 1 and 2 of a kit. B−A was calculated by a calculation unit from the measured concentrations using [Equation 1].

[6] = EPPS-treated whole blood / EPPS-treated plasma (Equation 2)
[7] = control plasma / EPPS-treated plasma (Equation 3)
[8] = Aged (7.2 months or older) female APP/PS1 mice, one value per mouse, EPPS 1,000 mg/kg/day, plasma β-amyloid after minus before

T1 sequence (P05067 672-713 limits assumed): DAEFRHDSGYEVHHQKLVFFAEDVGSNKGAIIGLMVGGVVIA

## O=S(=O)(O)CCCN1CCN(CCO)CC1 [EPPS, 4-(2-Hydroxyethyl)-1-piperazinepropanesulfonic acid]
[1]
  Dissociation of β-amyloid aggregates (bands of Aβ 40 and Aβ 42 monomers, 4.3-4.5 kD): has the activity of dissociating β-amyloid oligomers, profibrils, fibrils and plaque aggregates; also recorded: has the activity of dissociating β-amyloid dimer, oligomer, profibril, fibril and plaque aggregates
β-amyloid [2]; [6]
  MB/MP: 0.61
β-amyloid [2]; [7]
  UP/MP: 0.92
[3]
  Dissociation of β-amyloid aggregates by electron microscopic observation: no β-amyloid aggregates are observed; also recorded: confirms the activity of dissociating β-amyloid dimers, oligomers, profibrils, fibrils and plaques
β-amyloid [4]; [6]
  MB/MP: 0.79
β-amyloid [4]; [7]
  UP/MP: 0.99
β-amyloid [4]; plasma treated with EPPS, average of three measurements
  MP Aβ concentration (monomer concentration in plasma of the EPPS group): 151.58 ± 24.03
β-amyloid [5]; 5-6-month-old (young) and 7.2-month-old (aged) mice, before vs 24 hours after
  β-amyloid 42 concentration in plasma after administration (FIG. 3a): significant increase
β-amyloid [5]; 7.2-month-old (aged) mice, 1, 5, 19 and 33 days after administration
  β-amyloid 42 concentration in plasma, course over time (FIG. 3b): significant increase in β-amyloid 42 concentration followed by decrease
β-amyloid [5]; 24 hours (1 day) after administration of EPPS, all the mice
  B−A value (sign): positive (+)
β-amyloid [5]; [8]
  B-A (5 days): 93.531 and 163.986 and 51.584 and 76.049 and 170.979 and 86.122 and 108.916 and 311.820 and 134.965 and 170.656 and 207.692 and 55.115 and 209.711 and 88.441 and 105.420 and 130.096 and 118.007 and 70.105 and 185.315 and 66.259 and 214.549
  B-A (19 days): 298.504 and 52.809 and 70.596 and 86.108 and 129.025 and 57.487 and 53.294 and 43.826 and 101.221 and 82.444 and 136.814 and 131.569 and 88.695 and 61.725 and 27.070 and 32.708 and 22.406 and 20.515 and 59.409
  B-A (33 days): 114.33 and 23.509 and 148.154 and 21.599 and 71.410 and 4.797 and 24.240 and 11.079 and 42.621 and 31.969 and 60.179 and 39.237 and 23.448 and 33.902 and 41.596 and 59.545 and 31.762 and 51.292 and 78.101
  B-A (1 day): 78.802 and 41.434 and 20.276 and 12.442 and 15.385 and 7.373 (2×) and 182.867 and 10.138 and 13.364 and 11.060 and 4.147 and 140.559 and 16.129 and 194.580 and 18.894 and 6.119 and 345.979 and 19.816 and 156.294 and 180.594
β-amyloid [5]; Young (5-6 months) female APP/PS1 mice, one value per mouse, EPPS 1,000 mg/kg/day, plasma β-amyloid after minus before
  B-A (1 day): 52.151 and 22.674 and 98.547 and 20.430 and 191.398 and 124.731 and 108.065 and 102.326 and 89.535 and 94.186 and 146.802
β-amyloid [5]; since 19 days after the administration of EPPS
  B−A value, course over time: began to decrease

Reference: patent publication US10006920B2, “Diagnostic kit for diagnosis of abnormal protein aggregation- or misfolding-related diseases using dissociation of protein aggregates” (KOREA INSTITUTE OF SCIENCE AND TECHNOLOGY, priority 2013, dated 2018)
